Patent publication US20240391877A1, “COMPOUND AS INHIBITOR OF COMPLEMENT FACTOR D, AND PHARMACEUTICAL COMPOSITION AND USE THEREOF” (WUHAN CREATERNA SCIENCE AND TECHNOLOGY CO.,LTD., priority 2021, published 2024)

What was measured:
[1] = tested on: hemolysis of rabbit erythrocytes; test: Rabbit erythrocyte hemolysis assay to evaluate inhibitory activity on the bypass pathway; assay type: cell-based; settings: Oryctolagus cuniculus, 0.5 h, 48% NHP or 26.4% NHS, 37° C. 30 min, absorbance 415 nm
Text: 2. Rabbit Erythrocyte Hemolysis Assay to Evaluate the Inhibitory Activity of Compounds on the Bypass Pathway
Normal Human Serum, NHS (collected from healthy people), Normal Human Plasma, NHP (Shanghai Yuduo), 96-well ELISA plate (Jet Biofil), Japanese big-eared white rabbit (Wuhan WQJX), Alsever's solution (Procell), centrifuge (Thermo, PICO17), thermostatic shaker (Shanghai Fuma), destaining shaker (Beijing Liuyi), cell counter (Invitrogen, Counter Countess II) (GVB^o, EGTA, MgCl2, NaOH, microplate reader, microplate thermostatic shaker, and pipette are equivalent to those in the experiment 1).
48% NHP: 100% NHP was diluted to 48% with buffer;
26.4% NPS: 100% NHS was diluted to 26.4% with buffer;
rabbit erythrocyte suspension: blood was taken from rabbit ear marginal vein, anticoagulated with Alsever's solution at a ratio of 1:1, stored in portions at 4° C., and could be stored for 4 weeks. Before use, the suspension was centrifuged at 500 g for 5 min to discard the Alsever's solution, washed three times with an equal volume of buffer and centrifuged at 500 g for 5 min, and finally the density was adjusted to 6×10^8 cells/mL with buffer.
In the 96-well ELISA plate, the experimental group was added with 50 μL of 48% NHP or 26.4% NHS and 50 μL of compound solution; the positive control group was added with 50 μL of 48% NHP or 26.4% NHS and 50 μL of buffer containing 0.2% DMSO; the blank control group was added with 50 μL of 48% inactivated NHP or 26.4% inactivated NHS and 0.2% DMSO buffer; the H2O group was added with 100 μL of double-distilled water; incubated at 37° C. for 15 min; 20 μL of rabbit erythrocyte suspension was added to each well and incubated on a shaker at 37° C. for 30 min; centrifuged at 2000 g (3380 rpm) for 5 min, and […] of supernatant was transferred to a new 96-well ELISA plate, and the absorbance was detected at 415 nm.
The PC group represents 100% hemolysis, and the NC group represents 0% hemolysis.
IC50: half-maximal inhibitory concentration. Data were collected to calculate the log value of hemolysis percentage versus compound concentration, and IC50 values were calculated using GraphPad Prism software.

[2] = molecular target: T1, complement factor D (Homo sapiens, UniProt P00746); test: Complement factor D inhibitory activity (C3b method) in vitro screening; product Bb detected by ELISA; assay type: biochemical; settings: factor D + factor B + factor C3b, 37° C., Bb by MicroVue Bb Plus ELISA
T1 construct: purchased Complement tech
Text: 1. Complement Factor D Inhibitory Activity (C3b Method) In Vitro Screening Experiment
V-bottom plate (AXYGEN), DMSO (Sigma), MicroVue Bb Plus ELISA kit (Quidel), complement factor C3b (abbreviated as factor C3b, Complement tech), complement factor B (abbreviated as factor B, Complement tech), complement factor D (abbreviated as factor D, Complement tech), EDTA (MACKLIN), GVB^o (Complement tech), EGTA (Aladdin), MgCl2 (Aladdin), NaOH (Sinopharm), microplate reader (Molecular Devices, SpectraMax i3x), microplate thermostatic shaker (Thermo, MB100-2A), pipette (Gilson)
0.1 M Mg-EGTA: 3.8 g of EGTA, 0.9521 g of MgCl2, and 0.7 g of NaOH were weighed, and the pH was adjusted to 7.5 with NaOH. Distilled water was added to make up to 100 mL, and the mixture was filtered with a […] sterile needle filter, stored in portions at 4° C.
Buffer: 0.1 M Mg-EGTA solution was diluted 10-fold to 10 mM with GVB^o buffer; • factor B working solution: 1 mg/mL factor B solution (10.75 μM) was diluted 6.7-fold to 1.6 μM with buffer; • factor C3b working solution: 1 mg/mL factor C3b solution (5.68 μM) was diluted 5-fold to […] with buffer; • factor D working solution: 0.1 mg/mL factor D solution (4.17 μM) was diluted 1303-fold to 3.2 nM with buffer.
Note: a. The above dilution multiples are for reference only and are adjusted according to the true concentration labeled on the reagent; • b. factor B: 93 KDa, factor D: 24 KDa, factor C3b: 176 KDa.
Stop solution: An appropriate amount of EDTA powder was weighed, dissolved in a certain amount of GVB^o buffer, and the pH was adjusted to 7.5 with NaOH. The mixture was stirred until clear and prepared into a 10 mM solution.
Compound stock solution: 40 mM compound solution was diluted with DMSO into 1 mM stock solution, and the 1 mM stock solution was diluted 3-fold with DMSO at 8 points to prepare compound stock solutions of various concentrations.
Compound working solution: diluted 250-fold with buffer to obtain compound solutions of various concentrations.
In the V-bottom plate, the experimental group was added with 10 μL of factor D solution and 10 μL of compound solution; the positive control group was added with 10 μL of factor D solution and buffer containing 0.4% DMSO; the blank control group was added with […] containing 0.2% DMSO; incubated at 37° C. for 15 min; the factor B working solution and the factor C3b working solution were mixed homogeneously at a ratio of 1:1; 20 µL of the mixture was added to each well and incubated at 37° C. for 30 min; the reaction was stopped by adding 40 μL of stop solution; the production of product Bb was detected by MicroVue Bb Plus ELISA kit.
1.4.1 The required wells of the ELISA plate were taken out and allowed to return to room temperature, and the remaining ones were repackaged and stored at 4° C.;
1.4.2 the wells were washed twice with 300 μL of 1× wash buffer, and incubated for 1 min at 25° C. for the first wash;
1.4.3 samples were diluted 8-fold with complement specimen diluent, and 100 μL of sample was added to each well and incubated at 25° C. for 30 min;
1.4.4 the liquid in the wells was discarded, and the wells were washed 5 times with 300 μL of 1× wash buffer, and incubated at room temperature for 1 min for the first wash;
1.4.5 50 μL of Bb Plus Conjugate was added to each well and incubated at 25° C. for 30 min;
1.4.6 the liquid in the wells was discarded, and the wells were washed 5 times with 300 μL of 1× wash buffer, and incubated at room temperature for 1 min for the first wash;
1.4.7 100 μL of […] (Substrate Solution) was added to each well and incubated at 25° C. for 15 min;
1.4.8 100 μL of stop solution was added to each well, and the absorbance was detected at 450 nm within 30 min.
1.5.1 Inhibition rate of each drug concentration:
The PC group represents 0% inhibition rate, and the NC group represents 100% inhibition rate. […]

[3] = In vivo pharmacokinetic study (PK assay on SD rats); settings: Sprague-Dawley, rat, plasma; for AUC(0-t) / Cmax / half-life: 1 mg/kg
Description: 3. In Vivo Pharmacokinetic Study of the Compounds of the Present Disclosure
After adaptive domestication, SPF grade SD rats were administered 1 or 3 mg/kg the compounds of the present disclosure by single gavage and tail vein injection, respectively. Plasma was collected at specific time points after administration, and the concentration of compounds in plasma was detected by LC-MS/MS (AB SCIEX Qtrap4500). The PK parameters of each compound were calculated using software to reflect the pharmacokinetic properties of the compounds of the present disclosure in vivo in animals.

T1 sequence (P00746 26-253): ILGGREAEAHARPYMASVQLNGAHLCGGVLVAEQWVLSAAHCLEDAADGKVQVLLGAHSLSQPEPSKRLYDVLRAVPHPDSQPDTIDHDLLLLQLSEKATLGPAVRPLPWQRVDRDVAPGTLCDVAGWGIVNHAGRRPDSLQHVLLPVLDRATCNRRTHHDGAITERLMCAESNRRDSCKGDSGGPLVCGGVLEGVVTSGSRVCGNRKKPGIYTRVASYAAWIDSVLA

Row | Compound | IC50 [1] | also measured
1 | CC(N)c1cccc(-c2cc(COc3ccccc3CC(=O)O)cc(N3CCC4(CCCOC4)CC3)c2)c1F (centres unmarked) [Compound 056, 2-(2-((3′-(1-aminoethyl)-2′-fluoro-5-(2-oxa-9-azaspiro[5.5]undecan-9-yl)-[1,1′-biphenyl]-3-yl)methoxy)phenyl)acetic acid] | 70 nM | 
2 | NCc1cc(F)cc(-c2cc(COc3ccccc3CC(=O)O)cc(N3CCC4(CC3)CC4)c2)c1 [Compound 008, 2-(2-((3′-(aminomethyl)-5′-fluoro-5-(6-azaspiro[2.5]octan-6-yl)-[1,1′-biphenyl]-3-yl)methoxy)phenyl)acetic acid] | 196 nM | IC50 [2]: 18 nM
3 | NCc1cccc(-c2cc(COc3ccccc3CC(=O)O)cc(N3CCC4(COC4)C3)c2)c1 [Compound 015, 2-(2-((3′-(aminomethyl)-5-(2-oxa-6-azaspiro[3.4]octan-6-yl)-[1,1′-biphenyl]-3-yl)methoxy)phenyl)acetic acid] | 7 nM | 
4 | NCc1cccc(-c2cc(COc3cc(F)ccc3CC(=O)O)cc(N3CCC4(CC3)CC4)c2)c1 [Compound 009, 2-(2-((3′-(aminomethyl)-5-(6-azaspiro[2.5]octan-6-yl)-[1,1′-biphenyl]-3-yl)methoxy)-4-fluorophenyl)acetic acid] | 218 nM | 
5 | NCc1cccc(-c2cc(COc3ccccc3CC(=O)O)c(F)c(N3CCC4(CC3)COC4)c2)c1 [Compound 026, 2-(2-((3′-(aminomethyl)-4-fluoro-5-(2-oxa-7-azaspiro[3.5]nonan-7-yl)-[1,1′-biphenyl]-3-yl)methoxy)phenyl)acetic acid] | 16 nM | 
6 | NCc1cccc(-c2cc(COc3ccccc3CC(=O)O)cc(N3CCC4(CC3)CC(O)C4)c2)c1 [Compound 013, 2-(2-((3′-(aminomethyl)-5-(2-hydroxy-7-azaspiro[3.5]nonan-7-yl)-[1,1′-biphenyl]-3-yl)methoxy)phenyl)acetic acid] | 28 nM | IC50 [2]: 11 nM
7 | NC(CF)c1cccc(-c2cc(COc3ccccc3CC(=O)O)cc(N3CCC4(CC3)COC4)c2)c1 (centres unmarked) [Compound 044, 2-(2-((3′-(1-amino-2-fluoroethyl)-5-(2-oxa-7-azaspiro[3.5]nonan-7-yl)-[1,1′-biphenyl]-3-yl)methoxy)phenyl)acetic acid] | 133 nM | 
8 | NCc1cccc(-c2cc(COc3ccccc3CC(=O)O)cc(N3CCC4(CCC4)CC3)c2)c1 [Compound 002, 2-(2-((3′-(aminomethyl)-5-(7-azaspiro[3.5]nonan-7-yl)-[1,1′-biphenyl]-3-yl)methoxy)phenyl)acetic acid] | 98 nM | 
9 | CC(N)c1cccc(-c2cc(COc3ccccc3CC(=O)O)cc(N3CCC4(CCOCC4)CC3)c2)c1 (centres unmarked) [Compound 038] | 206 nM | 
10 | CC(N)c1cccc(-c2cc(COc3ccccc3CC(=O)O)cc(N3CCOC4(CC4)C3)c2)c1 (centres unmarked) [Compound 035] | 183 nM | 
11 | NCc1cccc(-c2cc(COc3ccccc3CC(=O)O)cc(N3CC4(CCCCC4)C3)c2)c1 [Compound 005, 2-(2-((3′-(aminomethyl)-5-(2-azaspiro[3.5]nonan-2-yl)-[1,1′-biphenyl]-3-yl)methoxy)phenyl)acetic acid] | 73 nM | 
12 | CC(N)c1cccc(-c2cc(COc3ccccc3CC(=O)O)cc(N3CC4(CCOC4)C3)c2)c1 (centres unmarked) [Compound 040] | 138 nM | 
13 | CC(N)c1cccc(-c2cc(COc3ccccc3CC(=O)O)cc(N3CCC4(CCO4)CC3)c2)c1 (centres unmarked) [Compound 043] | 93 nM | 
14 | NCc1cccc(-c2cc(COc3c(F)cccc3CC(=O)O)cc(N3CCC4(CC3)COC4)c2)c1 [Compound 028, 2-(2-((3′-(aminomethyl)-5-(2-oxa-7-azaspiro[3.5]nonan-7-yl)-[1,1′-biphenyl]-3-yl)methoxy)-3-fluorophenyl)acetic acid] | 58 nM | 
15 | NCc1cccc(-c2cc(COc3ccc(F)cc3CC(=O)O)cc(N3CCC4(CC3)CC4)c2)c1 [Compound 010, 2-(2-((3′-(aminomethyl)-5-(6-azaspiro[2.5]octan-6-yl)-[1,1′-biphenyl]-3-yl)methoxy)-5-fluorophenyl)acetic acid] | 159 nM | AUC(0-t) ([3]; IV): 5660 ng·h/mL; Cmax ([3]; IV): 1840 ng/mL; half-life ([3]; IV): 199 min; bioavailability ([3]; PO 1 mg/kg vs IV 1 mg/kg, read-out: Oral bioavailability F): 30.9%; AUC(0-t) ([3]; PO (3% DMSO + 4% Tween)): 1750 ng·h/mL; Cmax ([3]; PO (3% DMSO + 4% Tween)): 349 ng/mL; half-life ([3]; PO (3% DMSO + 4% Tween)): 191 min
16 | CC(N)c1cccc(-c2cc(COc3ccccc3CC(=O)O)cc(N3CCC4(CC3)COC4)c2)c1 (centres unmarked) [Compound 042] | 50 nM | 
17 | CC(N)c1cccc(-c2cc(COc3ccccc3CC(=O)O)cc(N3CCC4(CCOCC4)CC3)c2)c1F (centres unmarked) [Compound 055, 2-(2-((3′-(1-aminoethyl)-2′-fluoro-5-(3-oxa-9-azaspiro[5.5]undecan-9-yl)-[1,1′-biphenyl]-3-yl)methoxy)phenyl)acetic acid] | 117 nM | 
18 | CC(N)c1cccc(-c2cc(COc3ccccc3CC(=O)O)cc(N3CCC4(CCCOC4)CC3)c2)c1 (centres unmarked) [Compound 039] | 127 nM | 
19 | CC(N)c1cccc(-c2cc(COc3ccccc3CC(=O)O)cc(N3CCC4(CCOC4)CC3)c2)c1 (centres unmarked) [Compound 036] | 44 nM | 
20 | CC(N)c1cccc(-c2cc(COc3ccccc3CC(=O)O)cc(N3CCC4(CCO4)C3)c2)c1 (centres unmarked) [Compound 041, 2-(2-((3′-(1-aminoethyl)-5-(1-oxa-6-azaspiro[3.4]octan-6-yl)-[1,1′-biphenyl]-3-yl)methoxy)phenyl)acetic acid] | 151 nM | 
